Reference: US20260242372A1, “NOVEL IMIDAZOPYRIDINE AND PYRAZOLOPYRIDINE SULFONAMIDE DERIVATIVES” (Hoffmann-La Roche Inc., priority 2022, published 2026)

Target: human GPR17 short isoform (Homo sapiens, UniProt Q13304)
Assay: GPR17 cAMP assay (hGPR17 cAMP, TR-FRET, antagonist mode)
Assay type: cell-based
Details: CHO-K1 cells stably expressing human GPR17 short isoform; EC80 of agonist MDL29,951; forskolin 15 μM; 30 min at room temperature
Description: CHO-K1 cells stably expressing vector containing untagged human GPR17 short isoform (Roche) were cultured at 37° C./5% CO2 in DMEM (Dulbecco's Modified Eagle Medium): F-12 (1:1) supplemented with 10% foetal bovine serum and 400 μg/ml Geneticin.
Changes in intracellular cyclic adenosine monophosphate (cAMP) levels were quantified using the Nano-TRF Detection Assay kit (Roche Diagnostics, Cat. No. 05214386001). This assay allows for direct cAMP quantification in a homogeneous solution. CAMP is detected based on time-resolved fluorescence energy transfer (TR-FRET) and competitive binding of ruthenylated cAMP and endogenous cAMP to an anti-cAMP monoclonal antibody labeled with AlexaFluor-700. The Ruthenium complex serves as the FRET donor and transfers energy to AlexaFluor-700. The FRET signal is inversely proportional to the CAMP concentration.
CHO-GPR17S cells were detached with Accutase and resuspended in assay buffer consisting of Hank's Balanced Salt Solution (HBSS), 10 mM HEPES (4-(2-hydroxyethyl) piperazine-1-ethanesulfonic acid solution) and 0.1% bovine serum albumin (pH 7.4). The cells were seeded in black 384-well plates (Corning) at a density of 10′000 cells/20 μl assay buffer until the addition of compounds.
Test antagonist compounds were serially diluted in dimethyl sulfoxide (DMSO) and spotted in 384-well plates. The compounds were then diluted in HBSS buffer supplemented with an EC80 concentration of MDL29,951 (3-(2-Carboxy-4,6-dichloroindol-3-yl) propionic acid) (GPR17 agonist) plus 3-Isobutyl-1-methylxanthine (IBMX) (0.5 mM final concentration) and added to the cells at room temperature. Forskolin (15 μM final concentration) was added 5 minutes after the test compounds and the cells were incubated at room temperature for 30 minutes. The assay was stopped by adding cAMP detection mix (containing detergents for cell lysis) for 90 minutes at room temperature.
Cellular cAMP was measured using a Paradigm reader (Molecular Devices). The raw data was used to calculate the FRET signal based on the assay's P-factor as per cAMP kit instructions. The data was normalized to the maximal activity of a reference antagonist and dose response curves were fitted to the percent activity of the test compounds using a sigmoidal dose response model (Genedata Screener).

Chain of human GPR17 short isoform (Q13304 29-367): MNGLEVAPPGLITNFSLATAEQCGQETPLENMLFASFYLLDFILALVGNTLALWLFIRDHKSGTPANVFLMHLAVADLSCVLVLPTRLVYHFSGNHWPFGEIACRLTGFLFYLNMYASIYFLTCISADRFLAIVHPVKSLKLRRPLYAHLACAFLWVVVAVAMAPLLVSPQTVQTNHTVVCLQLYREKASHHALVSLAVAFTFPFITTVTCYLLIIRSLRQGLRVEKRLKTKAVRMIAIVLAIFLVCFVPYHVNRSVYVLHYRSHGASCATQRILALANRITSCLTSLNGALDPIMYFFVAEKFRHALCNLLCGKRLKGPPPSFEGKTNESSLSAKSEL

Row | Compound | IC50
1 | COc1nc(NS(=O)(=O)c2cnc3cc(Cl)ccn23)c(F)cc1OC(F)F [Example 40, 7-chloro-N-[5-(difluoromethoxy)-3-fluoro-6-methoxy-2-pyridyl]imidazo[1,2-a]pyridine-3-sulfonamide] | 0.064 µM
2 | CCc1ccn2c(S(=O)(=O)Nc3cc(F)c(OCC(F)F)nc3OC)cnc2c1 [Example 17, N-[6-(2,2-difluoroethoxy)-5-fluoro-2-methoxy-3-pyridyl]-7-ethyl-imidazo[1,2-a]pyridine-3-sulfonamide] | 0.018 µM
3 | COc1nc(NS(=O)(=O)c2cnc3cc(Br)ccn23)c(F)cc1CC#N [Example 21, 7-bromo-N-[5-(cyanomethyl)-3-fluoro-6-methoxy-2-pyridyl]imidazo[1,2-a]pyridine-3-sulfonamide] | 0.021 µM
4 | COc1nc(OCC(F)F)c(F)cc1NS(=O)(=O)c1cnc2cc(C(F)F)ccn12 [Example 14, N-[6-(2,2-difluoroethoxy)-5-fluoro-2-methoxy-3-pyridyl]-7-(difluoromethyl)imidazo[1,2-a]pyridine-3-sulfonamide] | 0.018 µM
5 | COc1nc(OCC(F)F)c(F)cc1NS(=O)(=O)c1cnc2cc(C)ccn12 [Example 2, N-[6-(2,2-difluoroethoxy)-5-fluoro-2-methoxy-3-pyridyl]-7-methyl-imidazo[1,2-a]pyridine-3-sulfonamide] | 0.007 µM
6 | COc1nc(OC(F)F)c(F)cc1NS(=O)(=O)c1cnc2c(OC)c(C)ccn12 [Example 19, N-[6-(difluoromethoxy)-5-fluoro-2-methoxy-3-pyridyl]-8-methoxy-7-methyl-imidazo[1,2-a]pyridine-3-sulfonamide] | 0.019 µM
7 | COc1nc(OCC(F)F)c(F)cc1NS(=O)(=O)c1cnc2n1CCC(C(F)(F)F)C2 (stereo not shown) [Example 41, N-[6-(2,2-difluoroethoxy)-5-fluoro-2-methoxy-3-pyridyl]-7-(trifluoromethyl)-5,6,7,8-tetrahydroimidazo[1,2-a]pyridine-3-sulfonamide] | 0.066 µM
8 | COc1c(C)ccn2c(S(=O)(=O)Nc3cc(F)c(CC#N)cc3F)cnc12 [Example 32, N-[4-(cyanomethyl)-2,5-difluoro-phenyl]-8-methoxy-7-methyl-imidazo[1,2-a]pyridine-3-sulfonamide] | 0.04 µM
9 | COc1nc(OC(F)F)c(F)cc1NS(=O)(=O)c1cnc2cc(C)ccn12 [Example 13, N-[6-(difluoromethoxy)-5-fluoro-2-methoxy-3-pyridyl]-7-methyl-imidazo[1,2-a]pyridine-3-sulfonamide] | 0.018 µM
10 | COc1nc(OCC(F)F)c(F)cc1NS(=O)(=O)c1cnc2n1CCC(C)O2 (stereo not shown) [Example 53, N-[6-(2,2-difluoroethoxy)-5-fluoro-2-methoxy-3-pyridyl]-7-methyl-6,7-dihydro-5H-imidazo[2,1-b][1,3]oxazine-3-sulfonamide] | 0.101 µM
11 | COc1nc(OCC(F)F)c(F)cc1NS(=O)(=O)c1cnc2n1CCC(C)C2 (stereo not shown) [Example 23, N-[6-(2,2-difluoroethoxy)-5-fluoro-2-methoxy-3-pyridyl]-7-methyl-5,6,7,8-tetrahydroimidazo[1,2-a]pyridine-3-sulfonamide] | 0.023 µM
12 | COc1nc(NS(=O)(=O)c2cnc3cc(C)ccn23)nc(OC)c1C [Example 54, N-(4,6-dimethoxy-5-methyl-pyrimidin-2-yl)-7-methyl-imidazo[1,2-a]pyridine-3-sulfonamide] | 0.112 µM
13 | COc1nc(OC(F)F)c(F)cc1NS(=O)(=O)c1cnc2nc(C3CC3)ccn12 [Example 28, 7-cyclopropyl-N-[6-(difluoromethoxy)-5-fluoro-2-methoxy-3-pyridyl]imidazo[1,2-a]pyrimidine-3-sulfonamide] | 0.031 µM
14 | COc1nc(OCC(F)F)c(F)cc1NS(=O)(=O)c1cnc2c(OC)c(C)ccn12 [Example 4, N-[6-(2,2-difluoroethoxy)-5-fluoro-2-methoxy-3-pyridyl]-8-methoxy-7-methyl-imidazo[1,2-a]pyridine-3-sulfonamide] | 0.008 µM
15 | COc1nc(NS(=O)(=O)c2cnc3cc(Br)ccn23)c(F)cc1CC(F)F [Example 10, 7-bromo-N-[5-(2,2-difluoroethyl)-3-fluoro-6-methoxy-2-pyridyl]imidazo[1,2-a]pyridine-3-sulfonamide] | 0.011 µM
16 | COc1nc(OCC(F)F)c(F)cc1NS(=O)(=O)c1cnc2c(F)c(Cl)ccn12 [Example 7, 7-chloro-N-[6-(2,2-difluoroethoxy)-5-fluoro-2-methoxy-3-pyridyl]-8-fluoro-imidazo[1,2-a]pyridine-3-sulfonamide] | 0.009 µM
17 | COc1nc(OCC(F)F)c(F)cc1NS(=O)(=O)c1cnc2n1CCC(C)C2C (stereo not shown) [Example 30, N-[6-(2,2-difluoroethoxy)-5-fluoro-2-methoxy-3-pyridyl]-7,8-dimethyl-5,6,7,8-tetrahydroimidazo[1,2-a]pyridine-3-sulfonamide] | 0.035 µM
18 | COc1nc(NS(=O)(=O)c2cnc3cc(Cl)ccn23)c(F)cc1OCC(F)F [Example 51, 7-chloro-N-[5-(2,2-difluoroethoxy)-3-fluoro-6-methoxy-2-pyridyl]imidazo[1,2-a]pyridine-3-sulfonamide] | 0.099 µM
19 | COc1nc(NS(=O)(=O)c2cnc3nc(C4CC4)ccn23)c(F)cc1CC(F)F [Example 36, 7-cyclopropyl-N-[5-(2,2-difluoroethyl)-3-fluoro-6-methoxy-2-pyridyl]imidazo[1,2-a]pyrimidine-3-sulfonamide] | 0.052 µM

Other lines, results leading:

Row | IC50 | Compound
20 | 0.897 µM | COc1nc(NS(=O)(=O)c2cnc3cc(Cl)ccn23)ncc1OCCF [Example 74, 7-chloro-N-[5-(2-fluoroethoxy)-4-methoxy-pyrimidin-2-yl]imidazo[1,2-a]pyridine-3-sulfonamide]
21 | 0.115 µM | COc1nc(NS(=O)(=O)c2cnc3cc(Cl)ccn23)nc(OC)c1OCC(F)F [Example 90, 7-chloro-N-[5-(2,2-difluoroethoxy)-4,6-dimethoxy-pyrimidin-2-yl]imidazo[1,2-a]pyridine-3-sulfonamide]
22 | 0.13 µM | COc1nc(OCC(F)F)c(F)cc1NS(=O)(=O)c1cnn2c(C#N)c(C)ccc12 [Example 84, 7-cyano-N-[6-(2,2-difluoroethoxy)-5-fluoro-2-methoxy-3-pyridyl]-6-methyl-pyrazolo[1,5-a]pyridine-3-sulfonamide]
23 | 0.137 µM | COc1c(C)ccn2c(S(=O)(=O)Nc3cc(F)c(Br)cc3F)cnc12 [Example 57, N-(4-bromo-2,5-difluoro-phenyl)-8-methoxy-7-methyl-imidazo[1,2-a]pyridine-3-sulfonamide]
24 | 0.013 µM | COc1nc(OC(F)F)c(F)cc1NS(=O)(=O)c1cnc2cc(C3CC3)ccn12 [Example 95, 7-cyclopropyl-N-[6-(difluoromethoxy)-5-fluoro-2-methoxy-3-pyridyl]imidazo[1,2-a]pyridine-3-sulfonamide]
25 | 0.006 µM | COc1nc(CC#N)c(F)cc1NS(=O)(=O)c1cnn2cc(Br)ccc12 [Example 77, 6-bromo-N-[6-(cyanomethyl)-5-fluoro-2-methoxy-3-pyridyl]pyrazolo[1,5-a]pyridine-3-sulfonamide]
26 | 0.004 µM | COc1cc(CC#N)c(F)cc1NS(=O)(=O)c1cnc2cc(C3CC3)ccn12 [Example 93, N-[4-(cyanomethyl)-5-fluoro-2-methoxy-phenyl]-7-cyclopropyl-imidazo[1,2-a]pyridine-3-sulfonamide]
27 | 0.974 µM | COc1nc(OCC(F)F)c(F)cc1NS(=O)(=O)c1cnc2n1CCC2C (stereo not shown) [Example 75, N-[6-(2,2-difluoroethoxy)-5-fluoro-2-methoxy-3-pyridyl]-7-methyl-6,7-dihydro-5H-pyrrol[1,2-a]imidazole-3-sulfonamide]
28 | 0.876 µM | COc1ccn2c(S(=O)(=O)Nc3cc(F)c(CC#N)cc3F)cnc2n1 [Example 73, N-[4-(cyanomethyl)-2,5-difluoro-phenyl]-7-methoxy-imidazo[1,2-a]pyrimidine-3-sulfonamide]
29 | 0.306 µM | COc1nc(OCC(F)F)c(F)cc1NS(=O)(=O)c1cnn2cc(C3COC3)ccc12 [Example 104, N-[6-(2,2-difluoroethoxy)-5-fluoro-2-methoxy-3-pyridyl]-6-(oxetan-3-yl)pyrazolo[1,5-a]pyridine-3-sulfonamide]
30 | 0.179 µM | COc1cc(CC#N)c(F)cc1NS(=O)(=O)c1cnc2cc(C3COC3)ccn12 [Example 101, N-[4-(cyanomethyl)-5-fluoro-2-methoxy-phenyl]-7-(oxetan-3-yl)imidazo[1,2-a]pyridine-3-sulfonamide]
31 | 0.181 µM | COc1c(Cl)ccn2c(S(=O)(=O)Nc3cc(F)c(CC#N)cc3F)cnc12 [Example 61, 7-chloro-N-[4-(cyanomethyl)-2,5-difluoro-phenyl]-8-methoxy-imidazo[1,2-a]pyridine-3-sulfonamide]
